# Data as given in PMC3407089, “Influence of GABAA Receptor α Subunit Isoforms on the Benzodiazepine Binding Site” (PLoS ONE, 2012).
# Assays:
# [1] = biological target: α5S209Cβ1γ2 GABAA receptor (Rattus norvegicus, UniProt P18508+P19969, S240C); experiment: Covalent reaction of 3-NCS at the binding level (residual radioligand binding, HEK293 membranes)
# Method: (§1) cDNAs coding for the αx (x = 1, 2, 3, 6), β2, and γ2S subunits DNA (20 µg : 20 µg : 20 µg) per 9 cm diameter dish were transfected in human embryonic kidney (HEK) 293 cells (American Type of Culture Collection, MD, USA, CRL 1573) using the calcium phosphate precipitation technique. For α5 containing receptors β2 was replaced by β1. […] Culturing of cells and membrane preparation were done as described before.
# (§2) As detailed in previous work, [30], [33] this procedure included three steps: incubation of membranes expressing recombinant wild type or mutant receptors with the reactive agent followed by extensive washing of the membranes in order to remove non-reacted compound and a radioactive ligand binding assay to determine residual binding. No covalent reaction would result in 100% residual binding, and 100% covalent reaction would result in 0% residual binding.
# (§3) Briefly, the membranes were re-suspended in phosphate buffer (100 mM KCl, 10 mM KH2PO4, 0.1 mM EDTA, pH 7.4) using a Glass/Teflon homogenizer. 0.1–1.0 mg/mL of protein were incubated in a total volume of 360 µL with either 10 µM (determination of degree of covalent reaction) or several concentrations of 3-NCS for 30 min on ice. Membranes were collected with rapid filtration on a round 7 mm diameter glass fiber filter (GF/C; Whatman) that was placed on a round 24 mm diameter glass fiber filter (GF/C; Whatman), both pre-washed with phosphate buffer. The reaction of 3-NCS with the receptor was stopped by washing of the filters six times with 5 mL phosphate buffer, each. The small filters with the deposited membranes were incubated in 0.12 mL phosphate buffer containing 5 nM [^3H]Ro15–1788. After 30 min the 7 mm filter was placed on a 24 mm filter and washed six times with 5 mL phosphate buffer each. Radioactivity was determined by liquid scintillation counting. Non-specific binding was determined in the presence of 100 µM Ro 15–1788. In control experiments, washing efficiency was estimated by placing radioactivity on the small filter. More than 99.95% of the radioactivity was removed (not shown).
# (§4) Concentration response curves for 3-NCS were fitted with the equation C(c) = Cmax/(1+(EC50/c)), where c is the concentration of 3-NCS, EC50 the concentration of 3-NCS where half maximal covalent reaction was observed, Cmax is the maximal extent of the covalent reaction and C the measured extent of the covalent reaction.
# [2] = biological target: α2S204Cβ2γ2 GABAA receptor (Rattus norvegicus, UniProt P18508+P23576, S232C); experiment: as above
# Method: as §1, §2, §3, §4
# [3] = biological target: T1, α1T206Cβ2γ2 GABAA receptor (Rattus norvegicus, UniProt P18508+P62813, T233C); experiment: as above; conditions: 3-NCS 30 min on ice, washed; residual [^3H]Ro15–1788 binding
# Method: as §1, §2, §3, §4
# [4] = biological target: T2, α2T206Cβ2γ2 GABAA receptor (Rattus norvegicus, UniProt P18508+P23576, T234C); experiment: as above
# Method: as §1, §2, §3, §4
# [5] = biological target: T3, α1S205Cβ2γ2 GABAA receptor (Rattus norvegicus, UniProt P18508+P62813, S232C); experiment: as above; conditions: 3-NCS 30 min on ice, washed; residual [^3H]Ro15–1788 binding
# Method: as §1, §2, §3, §4
# [6] = biological target: α5T210Cβ1γ2 GABAA receptor (Rattus norvegicus, UniProt P18508+P19969, T241C); experiment: as above
# Method: as §1, §2, §3, §4
# [7] = biological target: T4, α2S205Cβ2γ2 GABAA receptor (Rattus norvegicus, UniProt P18508+P23576, S233C); experiment: as above
# Method: as §1, §2, §3, §4
# [8] = biological target: T1, α1T206Cβ2γ2 GABAA receptor; experiment: Covalent reaction at the functional level (two-electrode voltage clamp, Xenopus oocytes); assay type: cell-based; conditions: after 10 µM 3-NCS and removal of non-covalently reacted 3-NCS; read-out: % allosteric modulation, 3-NCS
# Method: (§5) Capped cRNAs were synthesized (Ambion, Austin, TX, USA) from the linearized plasmids with a cytomegalovirus promotor (pCMVvectors) containing the different subunits, respectively. A poly-A tail of about 400 residues was added to each transcript using yeast poly- A polymerase (United States Biologicals, Cleveland, OH, USA). The concentration of the cRNA was quantified on a formaldehyde gel using Radiant Red stain (Bio-Rad) for visualization of the RNA. Known concentrations of RNA ladder (Invitrogen) were loaded as standard on the same gel. cRNAs were precipitated in ethanol/isoamylalcohol 19∶ 1, the dried pellet dissolved in water and stored at −80°C. cRNA mixtures were prepared from these stock solutions and stored at −80°C. Xenopus laevis oocytes were prepared, injected and defolliculated as described previously, [39]. They were injected with 50 nL of the cRNA solution containing wild type or mutated α1 or α2, α3, α5, α6 and wild type β2 and γ2 subunits at a concentration of 10 nM : 10 nM : 50 nM [40] and then incubated in modified Barth’s solution at +18°C for at least 24 h before the measurements.
# (§6) Tests with a model oocyte were performed to ensure linearity in the larger current range.
# (§7) Electrophysiological experiments were performed by using the two-electrode voltage clamp method at a holding potential of −80 mV. The perfusion medium contained 90 mM NaCl, 1 mM KCl, 1 mM MgCl2, 1 mM CaCl2, and 5 mM Na-HEPES (pH 7.4) and was applied by gravity flow 6 ml/min. The perfusion medium was applied through a glass capillary with an inner diameter of 1.35 mm, the mouth of which was placed about 0.4 mm from the surface of the oocyte. Allosteric modulation via the benzodiazepine site was measured at a GABA concentration eliciting 2–5% of the maximal GABA current amplitude.
# [9] = biological target: T2, α2T206Cβ2γ2 GABAA receptor; experiment: as above; assay type: cell-based; conditions: after 10 µM 3-NCS and removal of non-covalently reacted 3-NCS; read-out: % allosteric modulation, 3-NCS
# Method: as §5, §6, §7
# [10] = biological target: T3, α1S205Cβ2γ2 GABAA receptor; experiment: as above; assay type: cell-based; conditions: after 10 µM 3-NCS and removal of non-covalently reacted 3-NCS; read-out: % allosteric modulation, 3-NCS
# Method: as §5, §6, §7
# [11] = biological target: T4, α2S205Cβ2γ2 GABAA receptor; experiment: as above; assay type: cell-based; conditions: after 10 µM 3-NCS and removal of non-covalently reacted 3-NCS; read-out: % allosteric modulation, 3-NCS
# Method: as §5, §6, §7
# [12] = biological target: α5β1γ2 receptors (Rattus norvegicus, UniProt P18508+P19969); experiment: biochemical
# [13] = biological target: T1, α1T206Cβ2γ2 GABAA receptor; design: method as in PMID 19804380; conditions: 10 µM 3-NCS; cited from earlier work
# [14] = 3-NCS 30 min on ice, washed, residual [^3H]Ro15–1788 binding
# [15] = 0.5 h, 10 µM 3-NCS, mutation homologous to α1S205, n = 3, read-out: Extent of covalent reaction (100% minus % residual binding)
# [16] = 0.5 h, 10 µM 3-NCS, mutation homologous to α1T206, n = 3, read-out: Extent of covalent reaction (100% minus % residual binding)
# T1 sequence (P62813 28-455 T233C): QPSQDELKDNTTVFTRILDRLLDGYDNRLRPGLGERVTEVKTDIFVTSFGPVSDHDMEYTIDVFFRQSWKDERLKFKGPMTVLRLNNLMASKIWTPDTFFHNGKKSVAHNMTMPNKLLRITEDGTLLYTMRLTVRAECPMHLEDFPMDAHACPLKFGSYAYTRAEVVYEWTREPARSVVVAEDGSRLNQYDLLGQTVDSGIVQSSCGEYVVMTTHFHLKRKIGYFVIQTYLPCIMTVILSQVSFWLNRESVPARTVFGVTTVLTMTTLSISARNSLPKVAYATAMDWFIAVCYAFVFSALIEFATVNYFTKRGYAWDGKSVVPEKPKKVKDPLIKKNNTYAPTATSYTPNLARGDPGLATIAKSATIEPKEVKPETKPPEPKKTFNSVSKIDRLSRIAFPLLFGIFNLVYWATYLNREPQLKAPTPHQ
# T1 sequence (P18508 39-466): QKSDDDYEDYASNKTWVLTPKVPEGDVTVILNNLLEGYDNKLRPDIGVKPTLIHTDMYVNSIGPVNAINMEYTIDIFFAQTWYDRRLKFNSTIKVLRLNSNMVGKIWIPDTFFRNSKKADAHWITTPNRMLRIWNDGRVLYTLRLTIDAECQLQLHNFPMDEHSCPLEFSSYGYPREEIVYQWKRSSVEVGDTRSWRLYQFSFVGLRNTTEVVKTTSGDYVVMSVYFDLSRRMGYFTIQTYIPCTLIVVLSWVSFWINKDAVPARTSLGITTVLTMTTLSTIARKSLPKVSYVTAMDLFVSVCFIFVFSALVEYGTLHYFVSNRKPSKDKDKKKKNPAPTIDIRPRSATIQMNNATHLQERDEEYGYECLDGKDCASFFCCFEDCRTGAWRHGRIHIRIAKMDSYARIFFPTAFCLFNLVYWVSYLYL
# T1 sequence (P63138 26-474 partner): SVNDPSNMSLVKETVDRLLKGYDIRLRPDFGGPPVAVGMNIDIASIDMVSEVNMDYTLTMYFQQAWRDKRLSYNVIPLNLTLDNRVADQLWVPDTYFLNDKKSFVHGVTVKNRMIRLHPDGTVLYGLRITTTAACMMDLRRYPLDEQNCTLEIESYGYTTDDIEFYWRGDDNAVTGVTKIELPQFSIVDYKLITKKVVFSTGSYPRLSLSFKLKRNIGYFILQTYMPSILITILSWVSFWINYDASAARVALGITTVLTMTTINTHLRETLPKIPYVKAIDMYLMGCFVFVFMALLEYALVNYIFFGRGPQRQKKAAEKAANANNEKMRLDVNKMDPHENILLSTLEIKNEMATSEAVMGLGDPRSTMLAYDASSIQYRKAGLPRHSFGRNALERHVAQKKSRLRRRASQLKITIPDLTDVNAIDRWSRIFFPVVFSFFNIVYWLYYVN
# T2 sequence (P23576 29-451 T234C): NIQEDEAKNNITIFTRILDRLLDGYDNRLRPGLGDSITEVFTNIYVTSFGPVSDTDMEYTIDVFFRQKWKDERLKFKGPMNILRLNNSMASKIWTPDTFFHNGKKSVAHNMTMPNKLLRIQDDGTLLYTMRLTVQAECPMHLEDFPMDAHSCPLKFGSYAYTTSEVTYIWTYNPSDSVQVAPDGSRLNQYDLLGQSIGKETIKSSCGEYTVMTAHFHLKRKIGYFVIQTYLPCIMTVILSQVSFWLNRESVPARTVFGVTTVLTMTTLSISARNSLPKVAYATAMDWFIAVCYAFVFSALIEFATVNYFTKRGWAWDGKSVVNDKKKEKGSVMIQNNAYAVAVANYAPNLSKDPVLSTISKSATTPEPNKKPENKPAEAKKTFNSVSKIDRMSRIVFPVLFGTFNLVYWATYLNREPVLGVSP
# T2 sequence (P18508 39-466): as the sequence (P18508 39-466) above
# T2 sequence (P63138 26-474 partner): as the sequence (P63138 26-474 partner) above
# T4 sequence (P23576 29-451 S233C): as the sequence (P23576 29-451 T234C) above, with S205C, C206T counted along it
# T4 sequence (P18508 39-466, stated change not applied): as the sequence (P18508 39-466) above
# T4 sequence (P63138 26-474 partner): as the sequence (P63138 26-474 partner) above
# Chain of α5T210Cβ1γ2 GABAA receptor (P19969 26-464 T241C): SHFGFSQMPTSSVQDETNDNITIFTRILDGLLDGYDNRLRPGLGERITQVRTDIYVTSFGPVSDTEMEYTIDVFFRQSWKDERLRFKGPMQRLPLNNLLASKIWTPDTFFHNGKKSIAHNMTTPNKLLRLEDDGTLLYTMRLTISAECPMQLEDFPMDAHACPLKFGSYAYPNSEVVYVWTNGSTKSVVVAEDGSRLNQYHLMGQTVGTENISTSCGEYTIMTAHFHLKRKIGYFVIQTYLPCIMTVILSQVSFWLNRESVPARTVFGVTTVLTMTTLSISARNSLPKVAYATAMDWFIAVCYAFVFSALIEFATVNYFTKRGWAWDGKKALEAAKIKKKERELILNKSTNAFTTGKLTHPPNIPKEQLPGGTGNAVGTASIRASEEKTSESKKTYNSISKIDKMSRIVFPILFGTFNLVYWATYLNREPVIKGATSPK
# Chain of α5T210Cβ1γ2 GABAA receptor (P18508 39-466): as the sequence (P18508 39-466) above
# Chain of α5T210Cβ1γ2 GABAA receptor (P15431 26-474 partner): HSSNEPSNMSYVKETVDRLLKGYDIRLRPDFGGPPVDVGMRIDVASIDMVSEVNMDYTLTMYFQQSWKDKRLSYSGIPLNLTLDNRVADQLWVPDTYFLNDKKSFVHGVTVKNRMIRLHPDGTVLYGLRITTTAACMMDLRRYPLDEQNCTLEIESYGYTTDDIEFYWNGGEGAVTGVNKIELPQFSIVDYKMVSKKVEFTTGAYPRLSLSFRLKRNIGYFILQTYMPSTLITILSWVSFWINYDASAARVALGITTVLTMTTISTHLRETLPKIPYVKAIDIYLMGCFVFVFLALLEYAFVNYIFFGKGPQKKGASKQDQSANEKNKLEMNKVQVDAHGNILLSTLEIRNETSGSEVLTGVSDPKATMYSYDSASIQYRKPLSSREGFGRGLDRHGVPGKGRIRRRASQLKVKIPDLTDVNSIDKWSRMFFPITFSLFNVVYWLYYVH
# Chain of α2S204Cβ2γ2 GABAA receptor (P23576 29-451 S232C): as the sequence (P23576 29-451 T234C) above, with S204C, C206T counted along it
# Chain of α2S204Cβ2γ2 GABAA receptor (P18508 39-466): as the sequence (P18508 39-466) above
# Chain of α2S204Cβ2γ2 GABAA receptor (P63138 26-474 partner): as the sequence (P63138 26-474 partner) above
# Chain of α5S209Cβ1γ2 GABAA receptor (P19969 26-464 S240C): as the sequence (P19969 26-464 T241C) above, with S215C, C216T counted along it
# Chain of α5S209Cβ1γ2 GABAA receptor (P18508 39-466, stated change not applied): as the sequence (P18508 39-466) above
# Chain of α5S209Cβ1γ2 GABAA receptor (P15431 26-474 partner): as the sequence (P15431 26-474 partner) above
# T3 sequence (P62813 28-455 S232C): as the sequence (P62813 28-455 T233C) above, with S205C, C206T counted along it
# T3 sequence (P18508 39-466): as the sequence (P18508 39-466) above
# T3 sequence (P63138 26-474 partner): as the sequence (P63138 26-474 partner) above
# Chain of α5β1γ2 receptors (P19969 32-464 limits assumed): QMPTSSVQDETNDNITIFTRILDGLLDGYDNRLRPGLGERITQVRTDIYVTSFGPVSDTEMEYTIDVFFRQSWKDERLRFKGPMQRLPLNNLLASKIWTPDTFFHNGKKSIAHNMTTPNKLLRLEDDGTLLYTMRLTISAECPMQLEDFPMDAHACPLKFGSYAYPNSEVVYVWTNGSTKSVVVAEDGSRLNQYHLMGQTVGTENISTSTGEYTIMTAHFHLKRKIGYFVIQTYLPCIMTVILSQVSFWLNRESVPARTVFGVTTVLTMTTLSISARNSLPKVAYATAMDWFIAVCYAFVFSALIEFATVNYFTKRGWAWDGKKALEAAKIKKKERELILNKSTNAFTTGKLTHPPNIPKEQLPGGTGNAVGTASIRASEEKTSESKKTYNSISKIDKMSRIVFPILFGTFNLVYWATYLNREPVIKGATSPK
# Chain of α5β1γ2 receptors (P15431 26-474 partner): as the sequence (P15431 26-474 partner) above
# Chain of α5β1γ2 receptors (P18508 39-466): as the sequence (P18508 39-466) above
smiles,measurement,setting,value
CN1C(=O)C(N=C=S)N=C(c2ccccc2)c2cc([N+](=O)[O-])ccc21 (stereo not drawn) [3-NCS],EC50,[1]; [14],4100 ± 2200 nM
same,inhibition at 10 µM,[1]; [15],54%
same,EC50,[2]; [14],3200 ± 2300 nM
same,inhibition at 10 µM,"[2]; 0.5 h, 10 µM 3-NCS, mutation homologous to α1S204, n = 3, read-out: Extent of covalent reaction (100% minus % residual binding)",52%
same,EC50,[3],82 ± 28 nM
same,EC50,[4]; [14],190 ± 56 nM
same,inhibition at 10 µM,[4]; [16],54%
same,EC50,[5],630 ± 180 nM
same,EC50,[6]; [14],450 ± 150 nM
same,inhibition at 10 µM,[6]; [16],73%
same,EC50,[7]; [14],6600 ± 5400 nM
same,inhibition at 10 µM,[7]; [15],39%
same,activation at 10 µM,[8],119 ± 51%
same,activation at 10 µM,[9],53 ± 29%
same,activation at 10 µM,[10],60 ± 43%
same,activation at 10 µM,[11],35 ± 10%
same,Ki,[12],9840 ± 1480 nM
same,Covalent reaction with 3-NCS (in words),[13],resulted in covalent reaction
